Experimental data as given in the supplement of paper PMC10307832.

Legend:
Assay in all cases: relative viability (nuclei count vs DMSO), 5 days (fraction); higher = more cells survive
[1] = system: NCI-H1648
How it was run: (§1)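 A single step with final 0.05% Triton X-100, 1% formaldehyde and 1 ug/ml Hoechst fixed the cells and stained nuclei 5 days after treatment. Lung cancer cell lines in 1536-well plates had been treated by pin tool the day after seeding with one drug alone or a fixed anchor-drug dose plus five library-drug doses (not always all listed) in √10 steps, and nuclei were counted on 4× images. Relative viability is the ratio of nuclei in treated wells to nuclei in vehicle wells, taken as the median of duplicate plates.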

[2] = system: NCI-H522
How it was run: as §1

[3] = system: CAL-12T
How it was run: as §1

[4] = system: NCI-H1650
How it was run: as §1

[5] = system: LK-2
How it was run: as §1

[6] = system: Calu-6
How it was run: as §1

[7] = system: IA-LM
How it was run: as §1

[8] = system: NCI-H1703
How it was run: as §1

[9] = system: EBC-1
How it was run: as §1

[10] = system: A549
How it was run: as §1

[11] = system: NCI-H1299
How it was run: as §1

O=C(O)c1ccc(-c2c[nH]c3ncc(-c4ccccc4)cc23)cc1C1CCCC1 + CC(=O)c1c(C)c2cnc(Nc3ccc(N4CCNCC4)cn3)nc2n(C2CCCC2)c1=O [Palbociclib] (partner 0.5 µM)
relative viability ([1]; first compound 0.04 µM): 0.285 | relative viability ([1]; first compound 0.1265 µM): 0.294 | relative viability ([1]; first compound 0.4 µM): 0.27 | relative viability ([2]; first compound 0.04 µM): 0.977 | relative viability ([2]; first compound 0.1265 µM): 1.02 | relative viability ([2]; first compound 0.4 µM): 1.06 | relative viability ([2]; first compound 1.265 µM): 1.1 | relative viability ([3]; first compound 0.04 µM): 0.496 | relative viability ([3]; first compound 0.1265 µM): 0.442 | relative viability ([3]; first compound 0.4 µM): 0.499 | relative viability ([3]; first compound 1.265 µM): 0.384 | relative viability ([4]; first compound 0.04 µM): 0.34 | relative viability ([4]; first compound 0.1265 µM): 0.285 | relative viability ([4]; first compound 0.4 µM): 0.321 | relative viability ([4]; first compound 1.265 µM): 0.193 | relative viability ([5]; first compound 0.04 µM): 0.826 | relative viability ([5]; first compound 0.1265 µM): 0.768 | relative viability ([5]; first compound 0.4 µM): 0.771 | relative viability ([5]; first compound 1.265 µM): 0.646

O=C(O)c1ccc(-c2c[nH]c3ncc(-c4ccccc4)cc23)cc1C1CCCC1 + Nc1nc2[nH]cc(CCc3ccc(C(=O)N[C@@H](CCC(=O)O)C(=O)O)cc3)c2c(=O)[nH]1 [Pemetrexed] (partner 0.2 µM)
relative viability ([1]; first compound 0.04 µM): 0.732 | relative viability ([1]; first compound 0.1265 µM): 0.853 | relative viability ([1]; first compound 0.4 µM): 0.681 | relative viability ([2]; first compound 0.04 µM): 0.829 | relative viability ([2]; first compound 0.1265 µM): 1.04 | relative viability ([2]; first compound 0.4 µM): 0.812 | relative viability ([2]; first compound 1.265 µM): 0.928 | relative viability ([3]; first compound 0.04 µM): 1.15 | relative viability ([3]; first compound 0.1265 µM): 1.04 | relative viability ([3]; first compound 0.4 µM): 1.1 | relative viability ([3]; first compound 1.265 µM): 1.09 | relative viability ([4]; first compound 0.04 µM): 0.352 | relative viability ([4]; first compound 0.1265 µM): 0.466 | relative viability ([4]; first compound 0.4 µM): 0.383 | relative viability ([4]; first compound 1.265 µM): 0.33 | relative viability ([5]; first compound 0.04 µM): 0.172 | relative viability ([5]; first compound 0.1265 µM): 0.344 | relative viability ([5]; first compound 0.4 µM): 0.317 | relative viability ([5]; first compound 1.265 µM): 0.276

CC1(C)CCC(c2ccc(Cl)cc2)=C(CN2CCN(c3ccc(C(=O)NS(=O)(=O)c4ccc(N[C@H](CCN5CCOCC5)CSc5ccccc5)c(S(=O)(=O)C(F)(F)F)c4)cc3)CC2)C1 [Navitoclax] + CC(=O)c1c(C)c2cnc(Nc3ccc(N4CCNCC4)cn3)nc2n(C2CCCC2)c1=O [Palbociclib] (partner 0.5 µM)
relative viability ([1]; first compound 0.005 µM): 0.274 | relative viability ([1]; first compound 0.01581 µM): 0.269 | relative viability ([1]; first compound 0.1581 µM): 0.289 | relative viability ([1]; first compound 0.5 µM): 0.328 | relative viability ([2]; first compound 0.005 µM): 1.02 | relative viability ([2]; first compound 0.01581 µM): 1.05 | relative viability ([2]; first compound 0.05 µM): 1.06 | relative viability ([2]; first compound 0.1581 µM): 0.735 | relative viability ([2]; first compound 0.5 µM): 0.942 | relative viability ([3]; first compound 0.005 µM): 0.4 | relative viability ([3]; first compound 0.01581 µM): 0.445 | relative viability ([3]; first compound 0.05 µM): 0.409 | relative viability ([3]; first compound 0.1581 µM): 0.496 | relative viability ([3]; first compound 0.5 µM): 0.405 | relative viability ([4]; first compound 0.005 µM): 0.385 | relative viability ([4]; first compound 0.01581 µM): 0.456 | relative viability ([4]; first compound 0.05 µM): 0.315 | relative viability ([4]; first compound 0.1581 µM): 0.346 | relative viability ([4]; first compound 0.5 µM): 0.316 | relative viability ([5]; first compound 0.005 µM): 0.588 | relative viability ([5]; first compound 0.01581 µM): 0.925 | relative viability ([5]; first compound 0.05 µM): 0.661 | relative viability ([5]; first compound 0.1581 µM): 0.502 | relative viability ([5]; first compound 0.5 µM): 0.758

CC1(C)CCC(c2ccc(Cl)cc2)=C(CN2CCN(c3ccc(C(=O)NS(=O)(=O)c4ccc(N[C@H](CCN5CCOCC5)CSc5ccccc5)c(S(=O)(=O)C(F)(F)F)c4)cc3)CC2)C1 [Navitoclax] + CS(=O)(=O)N1CCN(Cc2cc3nc(-c4cccc5[nH]ncc45)nc(N4CCOCC4)c3s2)CC1 [Pictilisib] (partner 1 µM)
relative viability ([6]; first compound 0.005 µM): 0.891 | relative viability ([6]; first compound 0.01581 µM): 1.03 | relative viability ([6]; first compound 0.05 µM): 1.01 | relative viability ([6]; first compound 0.1581 µM): 0.775 | relative viability ([6]; first compound 0.5 µM): 0.752 | relative viability ([7]; first compound 0.005 µM): 0.466 | relative viability ([7]; first compound 0.01581 µM): 0.321 | relative viability ([7]; first compound 0.05 µM): 0.404 | relative viability ([7]; first compound 0.1581 µM): 0.457 | relative viability ([7]; first compound 0.5 µM): 0.292 | relative viability ([3]; first compound 0.005 µM): 0.549 | relative viability ([3]; first compound 0.01581 µM): 0.419 | relative viability ([3]; first compound 0.05 µM): 0.404 | relative viability ([3]; first compound 0.1581 µM): 0.522 | relative viability ([3]; first compound 0.5 µM): 0.393 | relative viability ([8]; first compound 0.005 µM): 0.244 | relative viability ([8]; first compound 0.01581 µM): 0.28 | relative viability ([8]; first compound 0.05 µM): 0.263 | relative viability ([8]; first compound 0.1581 µM): 0.239 | relative viability ([8]; first compound 0.5 µM): 0.245 | relative viability ([4]; first compound 0.005 µM): 0.541 | relative viability ([4]; first compound 0.01581 µM): 0.737 | relative viability ([4]; first compound 0.05 µM): 0.656 | relative viability ([4]; first compound 0.1581 µM): 0.623 | relative viability ([4]; first compound 0.5 µM): 0.394 | relative viability ([9]; first compound 0.005 µM): 0.411 | relative viability ([9]; first compound 0.01581 µM): 0.378 | relative viability ([9]; first compound 0.05 µM): 0.448 | relative viability ([9]; first compound 0.1581 µM): 0.575 | relative viability ([9]; first compound 0.5 µM): 0.138 | relative viability ([5]; first compound 0.005 µM): 0.612 | relative viability ([5]; first compound 0.01581 µM): 0.559 | relative viability ([5]; first compound 0.05 µM): 0.536 | relative viability ([5]; first compound 0.1581 µM): 0.657 | relative viability ([5]; first compound 0.5 µM): 0.511 | relative viability ([10]; first compound 0.005 µM): 0.418 | relative viability ([10]; first compound 0.01581 µM): 0.425 | relative viability ([10]; first compound 0.05 µM): 0.685 | relative viability ([10]; first compound 0.1581 µM): 0.51 | relative viability ([10]; first compound 0.5 µM): 0.504 | relative viability ([11]; first compound 0.005 µM): 0.717 | relative viability ([11]; first compound 0.01581 µM): 0.943 | relative viability ([11]; first compound 0.05 µM): 0.874 | relative viability ([11]; first compound 0.1581 µM): 0.822 | relative viability ([11]; first compound 0.5 µM): 0.819
